PubChem BioAssay AID250 (DTP/NCI, 2004)
Values joined by “and” are separate entries in the source; they are usually repeats but may differ in a detail not shown here. Identical values can stand only once. Inconclusive results and toxic doses are left out.

Tested on: BDF1 mice, L1210 leukemia sc, survival T/C
Experiment: NCI In Vivo Anticancer Drug Screen. Data for tumor model L1210 Leukemia (subcutaneous) in B6D2F1 (BDF1) mice
Conditions: endpoint: median survival time, higher = longer survival
Procedure, shortened: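 Transplantable tumor-bearing mice; survival or tumor size recorded; result = T/C, treated vs vehicle control.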

## CC(CN1CC(=O)NC(=O)C1)N1CC(=O)NC(=O)C1 (stereo unspecified)
dose: 3.12 mg/kg/injection, schedule: Q03HX024 (ip), vehicle: other
  T/C: 115 % of control
dose: 3.12 mg/kg/injection, schedule: Q03HX024 (ip), vehicle: steriod suspending solution
  T/C: 111 % of control
dose: 6.25 mg/kg/injection, schedule: Q03HX024 (ip), vehicle: other
  T/C: 156 % of control
dose: 6.25 mg/kg/injection, schedule: Q03HX024 (ip), vehicle: steriod suspending solution
  T/C: 155 % of control
dose: 8.4 mg/kg/injection, schedule: Q03HX024 (sc), vehicle: Klucel (hydroxypropylcellulose) (HPC)
  T/C: 150 % of control
dose: 10.0 mg/kg/injection, schedule: Q03HX024 (sc), vehicle: Klucel (hydroxypropylcellulose) (HPC)
  T/C: 184 % of control and 185 % of control
dose: 12.5 mg/kg/injection, schedule: Q01DX009 (sc), vehicle: steriod suspending solution
  T/C: 105 % of control
dose: 12.5 mg/kg/injection, schedule: Q03HX024 (ip), vehicle: other
  T/C: 191 % of control
dose: 12.5 mg/kg/injection, schedule: Q03HX024 (ip), vehicle: steriod suspending solution
  T/C: 161 % of control
dose: 14.0 mg/kg/injection, schedule: Q03HX024 (sc), vehicle: Klucel (hydroxypropylcellulose) (HPC)
  T/C: 180 % of control
dose: 16.0 mg/kg/injection, schedule: Q01DX009 (ip), vehicle: Klucel (hydroxypropylcellulose) (HPC)
  T/C: 109 % of control and 124 % of control
dose: 16.0 mg/kg/injection, schedule: Q01DX009 (ip), vehicle: other
  T/C: 119 % of control
dose: 20.0 mg/kg/injection, schedule: Q03HX024 (sc), vehicle: Klucel (hydroxypropylcellulose) (HPC)
  T/C: 194 % of control and 195 % of control
dose: 23.0 mg/kg/injection, schedule: Q03HX024 (sc), vehicle: Klucel (hydroxypropylcellulose) (HPC)
  T/C: 200 % of control
dose: 25.0 mg/kg/injection, schedule: Q01DX009 (sc), vehicle: steriod suspending solution
  T/C: 120 % of control
dose: 25.0 mg/kg/injection, schedule: Q03HX024 (ip), vehicle: other
  T/C: 160 % of control
dose: 25.0 mg/kg/injection, schedule: Q03HX024 (ip), vehicle: steriod suspending solution
  T/C: 155 % of control
dose: 39.0 mg/kg/injection, schedule: Q03HX024 (sc), vehicle: Klucel (hydroxypropylcellulose) (HPC)
  T/C: 205 % of control
dose: 40.0 mg/kg/injection, schedule: Q03HX024 (sc), vehicle: Klucel (hydroxypropylcellulose) (HPC)
  T/C: 199 % of control and 200 % of control
dose: 50.0 mg/kg/injection, schedule: Q01DX009 (ip), vehicle: steriod suspending solution
  T/C: 150 % of control
dose: 50.0 mg/kg/injection, schedule: Q01DX009 (sc), vehicle: steriod suspending solution
  T/C: 155 % of control
dose: 50.0 mg/kg/injection, schedule: Q04DX003 (sc), vehicle: Klucel (hydroxypropylcellulose) (HPC)
  T/C: 110 % of control and 112 % of control
dose: 64.0 mg/kg/injection, schedule: Q01DX009 (ip), vehicle: Klucel (hydroxypropylcellulose) (HPC)
  T/C: 154 % of control
dose: 65.0 mg/kg/injection, schedule: Q01DX009 (sc), vehicle: Klucel (hydroxypropylcellulose) (HPC)
  T/C: 170 % of control
dose: 65.0 mg/kg/injection, schedule: Q03HX024 (sc), vehicle: Klucel (hydroxypropylcellulose) (HPC)
  T/C: 205 % of control
dose: 80.0 mg/kg/injection, schedule: Q03HX024 (sc), vehicle: Klucel (hydroxypropylcellulose) (HPC)
  T/C: 118 % of control and 120 % of control
dose: 100.0 mg/kg/injection, schedule: Q01DX009 (ip), vehicle: steriod suspending solution
  T/C: 110 % of control
dose: 100.0 mg/kg/injection, schedule: Q01DX009 (sc), vehicle: steriod suspending solution
  T/C: 150 % of control and 175 % of control
dose: 100.0 mg/kg/injection, schedule: Q04DX003 (ip), vehicle: other
  T/C: 117 % of control
dose: 100.0 mg/kg/injection, schedule: Q04DX003 (ip), vehicle: steriod suspending solution
  T/C: 120 % of control
dose: 100.0 mg/kg/injection, schedule: Q04DX003 (sc), vehicle: steriod suspending solution
  T/C: 100 % of control and 120 % of control
dose: 108.0 mg/kg/injection, schedule: Q01DX009 (sc), vehicle: Klucel (hydroxypropylcellulose) (HPC)
  T/C: 160 % of control
dose: 108.0 mg/kg/injection, schedule: Q04DX003 (sc), vehicle: Klucel (hydroxypropylcellulose) (HPC)
  T/C: 118 % of control and 122 % of control
dose: 200.0 mg/kg/injection, schedule: Q01DX009 (ip), vehicle: steriod suspending solution
  T/C: 90 % of control
dose: 200.0 mg/kg/injection, schedule: Q01DX009 (sc), vehicle: steriod suspending solution
  T/C: 90 % of control
dose: 200.0 mg/kg/injection, schedule: Q04DX003 (ip), vehicle: Klucel (hydroxypropylcellulose) (HPC)
  T/C: 150 % of control
dose: 200.0 mg/kg/injection, schedule: Q04DX003 (ip), vehicle: other
  T/C: 175 % of control
dose: 200.0 mg/kg/injection, schedule: Q04DX003 (ip), vehicle: steriod suspending solution
  T/C: 150 % of control and 175 % of control
dose: 200.0 mg/kg/injection, schedule: Q04DX003 (sc), vehicle: steriod suspending solution
  T/C: 100 % of control
dose: 256.0 mg/kg/injection, schedule: Q01DX009 (ip), vehicle: Klucel (hydroxypropylcellulose) (HPC)
  T/C: 116 % of control and 121 % of control
dose: 256.0 mg/kg/injection, schedule: Q01DX009 (ip), vehicle: other
  T/C: 105 % of control
dose: 300.0 mg/kg/injection, schedule: Q01DX009 (sc), vehicle: Klucel (hydroxypropylcellulose) (HPC)
  T/C: 120 % of control
dose: 300.0 mg/kg/injection, schedule: Q04DX003 (sc), vehicle: Klucel (hydroxypropylcellulose) (HPC)
  T/C: 160 % of control and 169 % of control and 177 % of control
dose: 400.0 mg/kg/injection, schedule: Q04DX003 (ip), vehicle: Klucel (hydroxypropylcellulose) (HPC)
  T/C: 206 % of control
dose: 400.0 mg/kg/injection, schedule: Q04DX003 (ip), vehicle: other
  T/C: 156 % of control and 207 % of control
dose: 400.0 mg/kg/injection, schedule: Q04DX003 (ip), vehicle: steriod suspending solution
  T/C: 155 % of control and 185 % of control and 205 % of control
dose: 500.0 mg/kg/injection, schedule: Q01DX009 (sc), vehicle: Klucel (hydroxypropylcellulose) (HPC)
  T/C: 100 % of control
dose: 512.0 mg/kg/injection, schedule: Q01DX009 (ip), vehicle: Klucel (hydroxypropylcellulose) (HPC)
  T/C: 107 % of control
dose: 800.0 mg/kg/injection, schedule: Q04DX003 (ip), vehicle: Klucel (hydroxypropylcellulose) (HPC)
  T/C: 112 % of control
dose: 800.0 mg/kg/injection, schedule: Q04DX003 (ip), vehicle: other
  T/C: 111 % of control and 118 % of control
dose: 800.0 mg/kg/injection, schedule: Q04DX003 (ip), vehicle: steriod suspending solution
  T/C: 100 % of control and 110 % of control and 120 % of control
dose: 800.0 mg/kg/injection, schedule: Q04DX003 (sc), vehicle: steriod suspending solution
  T/C: 110 % of control and 120 % of control
dose: 833.0 mg/kg/injection, schedule: Q04DX003 (oral), vehicle: Klucel (hydroxypropylcellulose) (HPC)
  T/C: 161 % of control and 168 % of control
dose: 833.0 mg/kg/injection, schedule: Q04DX003 (sc), vehicle: Klucel (hydroxypropylcellulose) (HPC)
  T/C: 107 % of control and 111 % of control
dose: 840.0 mg/kg/injection, schedule: Q04DX003 (oral), vehicle: Klucel (hydroxypropylcellulose) (HPC)
  T/C: 186 % of control and 188 % of control
dose: 1388.0 mg/kg/injection, schedule: Q04DX003 (sc), vehicle: Klucel (hydroxypropylcellulose) (HPC)
  T/C: 100 % of control
